Patent publication US20120114588A1, “IBAT INHIBITORS FOR TREATMENT OF METABOLIC DISORDERS AND RELATED CONDITIONS” (ALBIREO AB, priority 2010, published 2012)

Key:
[1] = target: T1, Ileal Bile Acid Transporter Human (Homo sapiens, UniProt Q12908); assay: ISBT Hu HEK Uptake SPA: Human HEK Glycocholic acid Uptake Radiometric SPA; format: cell-based; details: human IBAT in HEK cells
T1 construct: expressed in transfected cells; host or cells: HEK
T1 sequence (Q12908 1-348): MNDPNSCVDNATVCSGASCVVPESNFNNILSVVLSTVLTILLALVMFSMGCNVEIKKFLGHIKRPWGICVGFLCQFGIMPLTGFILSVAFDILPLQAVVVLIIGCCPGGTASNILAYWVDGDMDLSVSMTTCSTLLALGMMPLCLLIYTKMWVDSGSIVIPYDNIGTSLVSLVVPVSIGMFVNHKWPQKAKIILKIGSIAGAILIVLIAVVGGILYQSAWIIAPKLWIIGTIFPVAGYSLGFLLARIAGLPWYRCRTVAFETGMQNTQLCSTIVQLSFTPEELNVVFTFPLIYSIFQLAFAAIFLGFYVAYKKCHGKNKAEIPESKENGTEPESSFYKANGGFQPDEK
Description: ISBT Hu HEK Uptake SPA 13203 IBAT HUM Ileal Bile Acid Transporter Human HEK Glycocholic acid Uptake Radiometric—SPA Inhibitor IC50 Mean IC50 (nM) was determined for the compounds of examples 1-14

IBAT = target: T2, IBAT (Mus musculus, UniProt P70172); assay: 75SeHCAT intestinal absorption (faecal excretion / body retention) in ApoE knock out mice; format: in vivo; details: single oral dose 0.156 μmol/kg, 75SeHCAT given 30 min later, 24 h collection, read-out: % inhibition 0.156 μmol/kg (mean IBAT inhibitory effect)
T2 construct: from tissue; host or cells: living ApoE knock-out C57BL/6 mice (intestine, in vivo)
T2 sequence (P70172 1-348): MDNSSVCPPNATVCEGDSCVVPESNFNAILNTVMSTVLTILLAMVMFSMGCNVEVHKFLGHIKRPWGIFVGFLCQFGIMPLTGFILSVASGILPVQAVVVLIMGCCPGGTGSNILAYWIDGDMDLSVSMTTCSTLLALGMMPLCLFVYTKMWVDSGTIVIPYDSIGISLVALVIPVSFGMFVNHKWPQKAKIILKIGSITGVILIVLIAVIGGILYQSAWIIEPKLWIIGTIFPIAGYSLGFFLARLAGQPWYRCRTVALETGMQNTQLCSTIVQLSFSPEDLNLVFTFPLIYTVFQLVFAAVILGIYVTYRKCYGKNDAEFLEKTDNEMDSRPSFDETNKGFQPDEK
Description: Species Mouse; Strain ApoE knock out; Substrain C57BL/6; Sex Female; Total No. of animals 70; Body weight range 20 g to 22 g; Supplier Mollegaard's Breeding (Skensved, Denmark); Identification method ID cards (bar code).
Acclimatisation At least one week at the Section of Laboratory; Animal Resource at AstraZeneca; Housing conditions Kept five by five in cages (Makrolon III, 7 dm2) in a room with regulated temperature ([…]), relative humidity (40% to 60%) and a 12/12 hours light/dark cycle. Diet Free access to R3 pellets (Lactamin, Vadstena, Sweden) during the housing and experimental period. Water Free access to tap water during the housing and experimental period.
Volume(s) of administration 0.1 mL per mousen […]
The animals were orally administered vehicle or Example 14 (0.156 , 0.625 or 2.5 pmol/kg) at 13:00 o'clock on the experimental day. […] The gamma radioactivities of 75SeHCAT in the faeces and in the gall bladder-intestine were separately counted by 1282 CompuGamma CS Gamma counter (Wallac oy, Turku, Finland). The stability as well as the quantity of the 75SeHCAT administered to each mouse, were controlled with an additional 75SeHCAT aliquot following the same experimental process as other tested samples in the study. […]
The mean IBAT inhibitory effect (%) at a dose (pmol/kg): 0.156 was determined for the compounds of examples 1-14 and is reported in Table 1.

Work on `CCCCC1(CCCC)CN(c2ccccc2)c2cc(SC)c(OCC(=O)N[C@@H](C(=O)N[C@@H](CC)C(=O)O)c3ccc(O)cc3)cc2S(=O)(=O)C1` [Example 11, 1,1-Dioxo-3,3-dibutyl-5-phenyl-7-methylthio-8-(N-{(R)-α-[N′-((S)-1-carboxypropyl)carbamoyl]-4-hydroxybenzyl}carbamoylmethoxy) -2,3,4,5-tetrahydro-1,5-benzothiazepine] yielded an IC50 [1] of 0.15 nM and an inhibition at 0.156 µmol/kg (IBAT) of 63%.
